The values below are quoted from earlier work in patent US7232821B2, “(2-((2-alkoxy)-phenyl) -cyclopent-1enyl) aromatic carbo and heterocyclic acid and derivatives” (Glaxo Group Limited, priority 2002, dated 2007).

Data set [1] relates to rodent model of post-operative pain.
Data set [2] has as its system rat model of chronic constriction injury.

Consider `Cc1cc(Cl)ccc1S(=O)(=O)NC[C@H]1C2CCC(CC2)[C@@H]1/C=C\CCCC(=O)O` [ONO-8711], for which the mechanical hyperalgesia result in data set [1] is on record as “inhibits mechanical hyperalgesia”. In addition, in data set [2], the hyperalgesia and allodynia result was “reduces hyperalgesia and allodynia”.
